# Test results: ChEMBL document CHEMBL5291721, “A preclinical secondary pharmacology resource illuminates target-adverse drug reaction associations of marketed drugs” (Nat Commun, 2023)
# How the values were obtained:
# D(3) dopamine receptor = D(3) dopamine receptor (Homo sapiens, UniProt P35462)
# [1] = molecular target: Sodium-dependent noradrenaline transporter (Homo sapiens, UniProt P23975)
# [2] = molecular target: T1, Cholecystokinin receptor type A (Homo sapiens, UniProt P32238)
# T1 sequence (P32238 whole entry): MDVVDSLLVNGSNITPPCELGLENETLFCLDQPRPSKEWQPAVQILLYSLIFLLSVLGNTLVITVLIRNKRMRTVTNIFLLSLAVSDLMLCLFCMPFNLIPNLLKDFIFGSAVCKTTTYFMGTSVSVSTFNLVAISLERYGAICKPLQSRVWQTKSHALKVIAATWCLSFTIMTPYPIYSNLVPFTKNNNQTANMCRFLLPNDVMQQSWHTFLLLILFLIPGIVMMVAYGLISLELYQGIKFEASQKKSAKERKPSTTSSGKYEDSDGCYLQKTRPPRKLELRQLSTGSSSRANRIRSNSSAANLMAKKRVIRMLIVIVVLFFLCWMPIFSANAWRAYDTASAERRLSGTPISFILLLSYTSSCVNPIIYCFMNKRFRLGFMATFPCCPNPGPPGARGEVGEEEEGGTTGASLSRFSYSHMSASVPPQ
# [3] = molecular target: T2, Prostaglandin G/H synthase 1 (Rattus norvegicus, UniProt Q63921); format: functional
# T2 sequence (Q63921 whole entry): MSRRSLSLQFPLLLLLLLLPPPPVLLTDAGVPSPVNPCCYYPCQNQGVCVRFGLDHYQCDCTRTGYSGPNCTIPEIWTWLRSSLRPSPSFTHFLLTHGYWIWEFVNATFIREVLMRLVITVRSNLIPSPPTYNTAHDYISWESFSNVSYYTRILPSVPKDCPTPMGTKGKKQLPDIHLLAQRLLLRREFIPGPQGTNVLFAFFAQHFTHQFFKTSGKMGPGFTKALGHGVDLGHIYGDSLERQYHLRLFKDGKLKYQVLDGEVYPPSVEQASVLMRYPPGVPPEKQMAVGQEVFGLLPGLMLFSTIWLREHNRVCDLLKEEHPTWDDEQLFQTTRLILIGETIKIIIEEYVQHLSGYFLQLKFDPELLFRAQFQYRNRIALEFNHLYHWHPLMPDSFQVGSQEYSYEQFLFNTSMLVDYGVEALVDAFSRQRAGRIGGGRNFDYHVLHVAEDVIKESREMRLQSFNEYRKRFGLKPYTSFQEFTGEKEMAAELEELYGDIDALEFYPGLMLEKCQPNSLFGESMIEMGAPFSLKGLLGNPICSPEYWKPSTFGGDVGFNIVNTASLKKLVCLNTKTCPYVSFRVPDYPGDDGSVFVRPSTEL
# [4] = molecular target: Sodium-dependent dopamine transporter (Homo sapiens, UniProt Q01959)
# Sodium-dependent dopamine transporter, sequence (Q01959 whole entry): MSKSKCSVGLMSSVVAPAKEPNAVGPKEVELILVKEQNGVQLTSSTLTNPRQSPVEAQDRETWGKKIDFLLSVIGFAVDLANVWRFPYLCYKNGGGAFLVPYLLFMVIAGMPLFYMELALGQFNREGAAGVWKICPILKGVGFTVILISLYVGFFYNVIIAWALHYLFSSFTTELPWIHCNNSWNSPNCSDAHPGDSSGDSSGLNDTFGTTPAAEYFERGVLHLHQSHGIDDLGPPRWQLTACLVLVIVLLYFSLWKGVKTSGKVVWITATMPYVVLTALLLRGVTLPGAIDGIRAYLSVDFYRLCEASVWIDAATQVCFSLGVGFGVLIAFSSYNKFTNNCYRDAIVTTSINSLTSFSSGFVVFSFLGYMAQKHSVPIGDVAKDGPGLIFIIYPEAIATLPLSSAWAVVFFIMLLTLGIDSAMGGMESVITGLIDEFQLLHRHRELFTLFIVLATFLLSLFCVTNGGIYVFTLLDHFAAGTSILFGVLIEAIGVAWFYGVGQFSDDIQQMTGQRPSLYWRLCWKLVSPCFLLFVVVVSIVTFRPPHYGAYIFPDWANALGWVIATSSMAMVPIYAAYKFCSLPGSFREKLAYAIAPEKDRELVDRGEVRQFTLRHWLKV
# [5] = molecular target: Gamma-aminobutyric acid receptor subunit alpha-1 (Rattus norvegicus, UniProt P62813); format: functional
# Gamma-aminobutyric acid receptor subunit alpha-1, sequence (P62813 whole entry): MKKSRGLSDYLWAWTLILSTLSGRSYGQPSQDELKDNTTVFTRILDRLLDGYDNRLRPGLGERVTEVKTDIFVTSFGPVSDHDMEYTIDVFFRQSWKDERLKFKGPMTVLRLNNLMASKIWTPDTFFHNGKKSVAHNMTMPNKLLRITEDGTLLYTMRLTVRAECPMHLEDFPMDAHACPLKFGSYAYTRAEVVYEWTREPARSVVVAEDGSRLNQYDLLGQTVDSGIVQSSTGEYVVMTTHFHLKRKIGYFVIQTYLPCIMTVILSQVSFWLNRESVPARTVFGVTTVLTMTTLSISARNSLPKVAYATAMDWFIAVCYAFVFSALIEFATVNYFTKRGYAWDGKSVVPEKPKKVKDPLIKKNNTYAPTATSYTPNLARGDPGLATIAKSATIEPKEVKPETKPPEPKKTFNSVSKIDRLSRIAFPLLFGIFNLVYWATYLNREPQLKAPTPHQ
# [6] = molecular target: T3, Alpha-2A adrenergic receptor (Homo sapiens, UniProt P08913); format: functional, cell-based
# T3 sequence (P08913 whole entry): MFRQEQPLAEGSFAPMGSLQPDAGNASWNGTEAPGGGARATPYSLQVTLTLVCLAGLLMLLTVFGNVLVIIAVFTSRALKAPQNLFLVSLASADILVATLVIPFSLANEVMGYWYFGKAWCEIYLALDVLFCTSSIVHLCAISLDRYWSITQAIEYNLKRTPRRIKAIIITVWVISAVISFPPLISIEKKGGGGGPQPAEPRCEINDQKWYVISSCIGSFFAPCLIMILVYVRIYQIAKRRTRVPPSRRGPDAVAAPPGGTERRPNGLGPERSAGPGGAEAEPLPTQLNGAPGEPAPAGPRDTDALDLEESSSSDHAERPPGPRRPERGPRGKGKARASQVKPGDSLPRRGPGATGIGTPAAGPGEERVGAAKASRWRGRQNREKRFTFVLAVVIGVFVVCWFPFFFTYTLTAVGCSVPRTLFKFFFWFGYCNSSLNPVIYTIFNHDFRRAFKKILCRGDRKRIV
# [7] = molecular target: cGMP-inhibited 3',5'-cyclic phosphodiesterase 3A (Homo sapiens, UniProt Q14432); format: functional
# cGMP-inhibited 3',5'-cyclic phosphodiesterase 3A, sequence (Q14432 whole entry): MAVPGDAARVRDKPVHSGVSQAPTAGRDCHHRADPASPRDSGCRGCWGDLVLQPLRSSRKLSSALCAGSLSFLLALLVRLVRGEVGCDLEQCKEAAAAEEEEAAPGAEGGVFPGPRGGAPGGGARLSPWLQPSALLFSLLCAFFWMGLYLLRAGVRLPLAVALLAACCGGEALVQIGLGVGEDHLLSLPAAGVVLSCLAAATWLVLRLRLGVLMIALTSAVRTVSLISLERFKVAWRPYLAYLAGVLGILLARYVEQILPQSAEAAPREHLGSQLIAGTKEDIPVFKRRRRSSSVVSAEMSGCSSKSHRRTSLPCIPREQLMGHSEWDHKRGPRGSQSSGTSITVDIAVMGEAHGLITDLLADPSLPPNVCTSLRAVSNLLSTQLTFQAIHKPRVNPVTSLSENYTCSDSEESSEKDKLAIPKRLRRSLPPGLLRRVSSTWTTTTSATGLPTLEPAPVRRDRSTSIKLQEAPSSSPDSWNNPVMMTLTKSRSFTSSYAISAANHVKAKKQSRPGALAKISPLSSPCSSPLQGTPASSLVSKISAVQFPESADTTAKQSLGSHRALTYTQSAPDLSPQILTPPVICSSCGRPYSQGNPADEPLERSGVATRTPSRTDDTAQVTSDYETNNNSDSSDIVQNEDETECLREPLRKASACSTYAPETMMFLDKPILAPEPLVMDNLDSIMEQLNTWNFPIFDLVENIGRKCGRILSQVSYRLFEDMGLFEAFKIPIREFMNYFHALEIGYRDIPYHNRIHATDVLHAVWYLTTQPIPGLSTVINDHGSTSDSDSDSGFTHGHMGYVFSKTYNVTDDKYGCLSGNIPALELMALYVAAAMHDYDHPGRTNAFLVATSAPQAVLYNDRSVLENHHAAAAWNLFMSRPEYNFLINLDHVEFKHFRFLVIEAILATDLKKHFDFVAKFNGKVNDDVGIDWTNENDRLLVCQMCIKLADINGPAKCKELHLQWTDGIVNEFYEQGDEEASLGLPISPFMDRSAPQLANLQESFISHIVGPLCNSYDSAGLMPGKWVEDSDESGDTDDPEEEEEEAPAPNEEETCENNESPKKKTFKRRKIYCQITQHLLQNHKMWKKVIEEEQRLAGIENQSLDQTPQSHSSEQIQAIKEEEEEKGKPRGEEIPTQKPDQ
# D(1A) dopamine receptor = D(1A) dopamine receptor (Homo sapiens, UniProt P21728); format: functional, cell-based
# Bile salt export pump = Bile salt export pump (Homo sapiens, UniProt O95342); format: functional
# Bile salt export pump, sequence (O95342 whole entry): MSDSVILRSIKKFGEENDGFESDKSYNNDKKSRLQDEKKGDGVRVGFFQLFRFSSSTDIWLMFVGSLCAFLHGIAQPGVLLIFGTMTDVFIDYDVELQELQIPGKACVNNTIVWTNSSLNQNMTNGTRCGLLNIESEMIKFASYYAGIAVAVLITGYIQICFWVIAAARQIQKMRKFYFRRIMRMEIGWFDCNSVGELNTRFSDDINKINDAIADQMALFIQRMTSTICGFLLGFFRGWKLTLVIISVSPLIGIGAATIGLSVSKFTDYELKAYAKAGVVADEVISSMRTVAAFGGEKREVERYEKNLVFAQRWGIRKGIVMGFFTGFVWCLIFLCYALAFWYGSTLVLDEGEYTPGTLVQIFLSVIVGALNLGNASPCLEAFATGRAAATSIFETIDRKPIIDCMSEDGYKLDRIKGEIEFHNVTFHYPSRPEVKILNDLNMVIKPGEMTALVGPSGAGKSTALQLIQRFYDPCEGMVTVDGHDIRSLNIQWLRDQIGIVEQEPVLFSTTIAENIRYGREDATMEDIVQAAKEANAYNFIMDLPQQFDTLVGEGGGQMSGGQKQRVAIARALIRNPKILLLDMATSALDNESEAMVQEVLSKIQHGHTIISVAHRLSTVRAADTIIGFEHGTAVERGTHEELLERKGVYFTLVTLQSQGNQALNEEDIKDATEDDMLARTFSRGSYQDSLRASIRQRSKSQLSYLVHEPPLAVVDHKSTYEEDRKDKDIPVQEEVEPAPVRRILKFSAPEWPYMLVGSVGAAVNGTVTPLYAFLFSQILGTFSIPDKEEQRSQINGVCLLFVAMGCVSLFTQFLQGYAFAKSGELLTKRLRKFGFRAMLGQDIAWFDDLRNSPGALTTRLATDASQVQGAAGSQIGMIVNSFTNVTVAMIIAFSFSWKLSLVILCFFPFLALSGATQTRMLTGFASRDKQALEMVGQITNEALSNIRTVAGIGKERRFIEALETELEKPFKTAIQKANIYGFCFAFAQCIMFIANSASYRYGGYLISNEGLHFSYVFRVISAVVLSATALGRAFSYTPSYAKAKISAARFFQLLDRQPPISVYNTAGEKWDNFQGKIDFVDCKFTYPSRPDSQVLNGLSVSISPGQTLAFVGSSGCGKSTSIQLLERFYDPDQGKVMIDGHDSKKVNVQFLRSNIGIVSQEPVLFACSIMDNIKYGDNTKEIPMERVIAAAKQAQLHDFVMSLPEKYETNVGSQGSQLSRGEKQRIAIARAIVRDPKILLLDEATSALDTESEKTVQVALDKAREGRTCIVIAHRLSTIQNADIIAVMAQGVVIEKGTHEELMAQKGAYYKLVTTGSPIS
# Motilin receptor = Motilin receptor (Homo sapiens, UniProt O43193)
# Motilin receptor, sequence (O43193 whole entry): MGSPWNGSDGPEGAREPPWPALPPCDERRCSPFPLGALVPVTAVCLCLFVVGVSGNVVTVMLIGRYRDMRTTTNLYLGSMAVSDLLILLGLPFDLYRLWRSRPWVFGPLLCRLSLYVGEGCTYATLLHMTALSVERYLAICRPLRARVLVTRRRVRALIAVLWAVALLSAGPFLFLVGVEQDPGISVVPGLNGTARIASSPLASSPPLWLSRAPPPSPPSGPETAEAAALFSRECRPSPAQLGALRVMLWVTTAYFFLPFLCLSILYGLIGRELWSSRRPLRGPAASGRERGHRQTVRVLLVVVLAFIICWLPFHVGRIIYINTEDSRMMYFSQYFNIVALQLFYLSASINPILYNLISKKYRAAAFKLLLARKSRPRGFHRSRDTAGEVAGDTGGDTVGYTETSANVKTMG
# Adenosine receptor A1 = molecular target: T4, Adenosine receptor A1 (Homo sapiens, UniProt P30542)
# T4 sequence (P30542 whole entry): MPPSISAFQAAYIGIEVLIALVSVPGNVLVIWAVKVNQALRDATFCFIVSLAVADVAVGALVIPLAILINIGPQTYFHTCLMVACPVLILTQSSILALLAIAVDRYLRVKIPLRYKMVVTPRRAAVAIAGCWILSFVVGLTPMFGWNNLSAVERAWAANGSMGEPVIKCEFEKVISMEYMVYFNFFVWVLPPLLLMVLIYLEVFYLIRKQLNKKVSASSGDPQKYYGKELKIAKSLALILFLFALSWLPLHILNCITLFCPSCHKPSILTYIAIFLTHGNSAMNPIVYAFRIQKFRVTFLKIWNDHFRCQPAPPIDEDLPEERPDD
# [8] = molecular target: T5, Alpha-2C adrenergic receptor (Homo sapiens, UniProt P18825); format: functional
# T5 sequence (P18825 whole entry): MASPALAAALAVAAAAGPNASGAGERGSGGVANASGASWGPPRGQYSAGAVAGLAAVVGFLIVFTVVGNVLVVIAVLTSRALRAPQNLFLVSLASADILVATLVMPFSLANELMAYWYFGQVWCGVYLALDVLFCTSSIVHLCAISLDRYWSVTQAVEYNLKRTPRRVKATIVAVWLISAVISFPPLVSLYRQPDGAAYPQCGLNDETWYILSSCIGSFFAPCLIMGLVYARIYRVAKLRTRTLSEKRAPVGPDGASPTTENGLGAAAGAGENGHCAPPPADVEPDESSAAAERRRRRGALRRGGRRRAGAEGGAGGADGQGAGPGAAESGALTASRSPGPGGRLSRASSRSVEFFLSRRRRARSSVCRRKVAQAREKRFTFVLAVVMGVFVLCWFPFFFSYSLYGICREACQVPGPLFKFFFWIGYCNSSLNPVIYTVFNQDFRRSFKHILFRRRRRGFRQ
# Also: assay procedure not described here.
# D(3) dopamine receptor, sequence (P35462 whole entry): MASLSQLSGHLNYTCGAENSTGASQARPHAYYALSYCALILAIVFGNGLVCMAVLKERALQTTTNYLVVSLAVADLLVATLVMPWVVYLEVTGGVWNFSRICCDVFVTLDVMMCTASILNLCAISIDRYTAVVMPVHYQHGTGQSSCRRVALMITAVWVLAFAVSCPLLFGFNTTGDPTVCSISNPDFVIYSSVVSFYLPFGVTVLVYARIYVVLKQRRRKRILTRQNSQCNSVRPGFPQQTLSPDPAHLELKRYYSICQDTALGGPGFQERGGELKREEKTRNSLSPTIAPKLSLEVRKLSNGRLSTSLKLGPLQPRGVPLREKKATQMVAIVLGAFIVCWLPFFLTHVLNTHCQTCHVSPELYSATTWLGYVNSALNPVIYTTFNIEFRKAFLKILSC
# Sodium-dependent noradrenaline transporter, sequence (P23975 whole entry): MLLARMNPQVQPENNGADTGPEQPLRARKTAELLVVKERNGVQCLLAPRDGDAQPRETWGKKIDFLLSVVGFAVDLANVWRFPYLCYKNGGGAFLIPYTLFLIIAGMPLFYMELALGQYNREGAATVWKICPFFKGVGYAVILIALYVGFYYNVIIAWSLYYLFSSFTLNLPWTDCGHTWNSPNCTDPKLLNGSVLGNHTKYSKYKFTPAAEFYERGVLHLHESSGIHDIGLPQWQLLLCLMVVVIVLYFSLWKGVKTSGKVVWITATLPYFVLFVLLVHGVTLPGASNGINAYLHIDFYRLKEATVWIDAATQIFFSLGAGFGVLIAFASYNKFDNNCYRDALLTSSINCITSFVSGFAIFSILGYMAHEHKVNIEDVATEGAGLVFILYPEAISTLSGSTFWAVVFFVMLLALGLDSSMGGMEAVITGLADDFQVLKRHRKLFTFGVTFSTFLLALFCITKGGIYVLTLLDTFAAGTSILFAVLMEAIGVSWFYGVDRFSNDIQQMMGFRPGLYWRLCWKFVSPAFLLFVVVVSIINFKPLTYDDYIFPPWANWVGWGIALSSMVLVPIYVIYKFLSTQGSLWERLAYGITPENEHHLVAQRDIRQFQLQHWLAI
SMILES,AC50 (D(3) dopamine receptor) [µM],AC50 [1] [µM],AC50 [2] [µM],AC50 [3] [µM],AC50 [4] [µM],AC50 [5] [µM],AC50 [6] [µM],AC50 [7] [µM],AC50 (D(1A) dopamine receptor) [µM],AC50 (Bile salt export pump) [µM],AC50 (Motilin receptor) [µM],AC50 (Adenosine receptor A1) [µM],AC50 [8] [µM]
O=C1Nc2ccc(Cl)cc2[C@@](C#CC2CC2)(C(F)(F)F)O1 [EFAVIRENZ],> 30,15,> 30,> 30,18,> 10,> 10,24,> 30,110,> 30,> 30,> 30
CO[C@H]1C[C@@H]2CC[C@@H](C)[C@@](O)(O2)C(=O)C(=O)N2CCCC[C@H]2C(=O)O[C@H]([C@H](C)C[C@@H]2CC[C@@H](O)[C@H](OC)C2)CC(=O)[C@H](C)/C=C(\C)[C@@H](O)[C@@H](OC)C(=O)[C@H](C)C[C@H](C)/C=C/C=C/C=C/1C [SIROLIMUS],0.87,> 30,> 30,> 30,> 30,> 10,> 10,> 30,> 10,1.01,> 10,> 30,> 10
CN1C(C(=O)Nc2ccccn2)=C(O)c2sc(Cl)cc2S1(=O)=O [LORNOXICAM],> 30,> 30,> 30,22,> 30,> 10,> 10,> 30,> 10,32,> 10,> 30,> 10
Cc1cccc(Nc2ccccc2C(=O)O)c1C [MEFENAMIC ACID],> 30,> 10,> 10,0.26,> 10,> 10,> 10,> 30,> 10,150,> 10,> 10,> 10
Cc1cn([C@H]2C=C[C@@H](CO)O2)c(=O)[nH]c1=O [STAVUDINE],> 10,> 10,> 30,> 30,> 10,> 10,> 10,> 30,> 10,> 300,> 10,> 30,> 10
CCC(C)n1ncn(-c2ccc(N3CCN(c4ccc(OCC5COC(Cn6cncn6)(c6ccc(Cl)cc6Cl)O5)cc4)CC3)cc2)c1=O (stereo not given) [ITRACONAZOLE],> 30,> 30,> 30,> 30,> 30,> 30,> 30,> 30,> 30,0.66,> 30,> 30,> 30
Cc1ccc(-c2cc(C(F)(F)F)nn2-c2ccc(S(N)(=O)=O)cc2)cc1 [CELECOXIB],> 30,15.7,> 10,,5.86,> 10,> 10,> 30,> 10,34,> 10,> 10,> 10
Clc1ccc2nsnc2c1NC1=NCCN1 [TIZANIDINE],> 10,> 10,> 30,> 30,> 10,> 10,,> 30,> 10,> 300,> 10,> 30,1.31
O=P1(NCCCl)OCCCN1CCCl (stereo not given) [IFOSFAMIDE],> 30,> 30,> 30,> 30,> 30,> 30,> 30,12,> 30,> 300,> 30,> 30,> 30
O=C(O[C@H]1C[C@H]2CC[C@@H](C1)[N+]21CCCC1)C(O)(c1ccccc1)c1ccccc1 [TROSPIUM],> 30,> 30,> 30,> 30,> 30,> 30,> 30,> 30,> 30,> 300,> 30,> 30,> 30
Cc1nc([N+](=O)[O-])cn1-c1ccc([N+](=O)[O-])cc1 [NITREFAZOLE],> 30,,> 30,> 30,> 30,> 30,> 30,> 30,> 30,> 300,> 30,> 30,> 30
CC(=O)Nc1ccc(O)cc1 [ACETAMINOPHEN],> 30,> 30,> 30,> 30,> 30,> 30,> 30,> 30,,> 300,> 30,> 30,> 30
CC(=O)NCCCS(=O)(=O)O [ACAMPROSATE],> 30,,> 30,> 30,> 30,> 30,> 30,> 30,> 30,> 300,> 30,> 30,> 30
CC1=C(C(=O)O)N2C(=O)[C@@H](NC(=O)[C@H](N)c3ccccc3)[C@H]2SC1 [CEPHALEXIN ANHYDROUS],> 10,> 10,> 30,> 30,,> 10,> 30,> 30,,> 300,> 10,> 30,> 10
